Assay results published in ChEMBL document CHEMBL5154766, “Synthesis, bioevaluation and molecular dynamics of pyrrolo-pyridine benzamide derivatives as potential antitumor agents in vitro and in vivo” (Eur J Med Chem, 2022).
Activity calls are given as the source filed them. The rule behind the calls is not given here.

Key:
A549 [1] = test: Antiproliferative activity against human A549 cells expressing c-Met after 48 hrs by MTT assay; type: functional, cell-based; settings: A549, 48 h
MCF7 = test: Antiproliferative activity against human MCF7 cells expressing c-Met after 48 hrs by MTT assay; type: functional, cell-based; settings: MCF7, 48 h
HeLa = test: Antiproliferative activity against human HeLa cells expressing c-Met after 48 hrs by MTT assay; type: functional, cell-based
A549 [2] = test: Induction of apoptosis in human A549 cells assessed as cytoplasmic shrinkage at 1 to 5 uM measured after 12 hrs by Acridine orange staining method; type: functional, cell-based; settings: dose 1-5 µM
A549 [3] = test: Induction of apoptosis in human A549 cells assessed as membrane swelling at 1 to 5 uM measured after 12 hrs by Acridine orange staining method; type: functional, cell-based; settings: dose 1-5 µM
A549 [4] = test: Induction of apoptosis in human A549 cells assessed as cell fragment formation at 1 to 5 uM measured after 12 hrs by Acridine orange staining method; type: functional, cell-based; settings: dose 1-5 µM
A549 [5] = test: Induction of apoptosis in human A549 cells assessed as apoptotic bodies formation at 1 to 5 uM measured after 12 hrs by Acridine orange staining method; type: functional, cell-based; settings: dose 1-5 µM
A549 [6] = test: Induction of apoptosis in human A549 cells assessed as increase in chromatin contraction at 1 to 5 uM measured after 12 hrs by Acridine orange staining method; type: functional, cell-based; settings: dose 1-5 µM
A549 [7] = test: Induction of apoptosis in human A549 cells assessed as late apoptotic cells at 2.5 uM measured after 24 hrs by PI/Annexin V staining based flow cytometry assay (reference value: 4.49%); type: functional
A549 [8] = test: Induction of apoptosis in human A549 cells assessed as early apoptotic cells at 2.5 uM measured after 24 hrs by PI/Annexin V staining based flow cytometry assay (reference value: 2.5%); type: functional
A549 [9] = test: Induction of apoptosis in human A549 cells assessed as late apoptotic cells at 5 uM measured after 24 hrs by PI/Annexin V staining based flow cytometry assay (reference value: 4.49%); type: functional
A549 [10] = test: Induction of apoptosis in human A549 cells assessed as early apoptotic cells at 5 uM measured after 24 hrs by PI/Annexin V staining based flow cytometry assay (reference value: 2.5%); type: functional
A549 [11] = test: Induction of apoptosis in human A549 cells assessed as late apoptotic cells at 10 uM measured after 24 hrs by PI/Annexin V staining based flow cytometry assay (reference value: 4.49%); type: functional
A549 [12] = test: Induction of apoptosis in human A549 cells assessed as early apoptotic cells at 10 uM measured after 24 hrs by PI/Annexin V staining based flow cytometry assay (reference value: 2.5%); type: functional
A549 [13] = test: Induction of cell cycle arrest in human A549 cells assessed as accumulation at G0/G1 phase at 2.5 uM measured by flow cytometry (reference value: 57.68%); type: functional
A549 [14] = test: Induction of cell cycle arrest in human A549 cells assessed as accumulation at G2/M phase at 2.5 uM measured by flow cytometry (reference value: 7.98%); type: functional
A549 [15] = test: Induction of cell cycle arrest in human A549 cells assessed as accumulation at S phase at 2.5 uM measured by flow cytometry (reference value: 34.34%); type: functional
A549 [16] = test: Induction of cell cycle arrest in human A549 cells assessed as accumulation at G0/G1 phase at 5 uM measured by flow cytometry (reference value: 57.68%); type: functional
A549 [17] = test: Induction of cell cycle arrest in human A549 cells assessed as accumulation at G2/M phase at 5 uM measured by flow cytometry (reference value: 7.98%); type: functional
A549 [18] = test: Induction of cell cycle arrest in human A549 cells assessed as accumulation at S phase at 5 uM measured by flow cytometry (reference value: 34.34%); type: functional
A549 [19] = test: Induction of cell cycle arrest in human A549 cells assessed as accumulation at G0/G1 phase at 10 uM measured by flow cytometry (reference value: 57.68%); type: functional
A549 [20] = test: Induction of cell cycle arrest in human A549 cells assessed as accumulation at G2/M phase at 10 uM measured by flow cytometry (reference value: 7.98%); type: functional
A549 [21] = test: Induction of cell cycle arrest in human A549 cells assessed as accumulation at S phase at 10 uM measured by flow cytometry (reference value: 34.34%); type: functional
A549 [22] = test: Downregulation of c-Met expression in human A549 cells at 5 to 10 uM measured by fluorescence quantitative PCR analysis; type: functional, cell-based; settings: dose 5-10 µM
A549 [23] = test: Antitumor activity against human A549 cells xenografted in BALB/c nude mouse assessed as tumor growth inhibition at 20 mg/kg, ip administered every two days for 18 days; type: functional; settings: A549, 432 h, time 18 day, read-out: TGI
A549 [24] = test: Antitumor activity against human A549 cells xenografted in BALB/c nude mouse assessed as reduction in Ki67 expression at 20 mg/kg, ip administered every two days for 18 days by immunohistochemistry; type: functional, organism-based; settings: time 18.0 day
[25] = Toxicity in BALB/c nude mouse xenografted with human A549 cells assessed as effect on body weight at 20 mg/kg, ip administered every two days for 18 days; type: organism-based; settings: in vivo, 432 h, time 18 day
[26] = Toxicity in BALB/c nude mouse xenografted with human A549 cells assessed as effect on kidney at 20 mg/kg, ip administered every two days for 18 days by H and E staining method; type: organism-based; settings: in vivo, 432 h, time 18 day
[27] = Toxicity in BALB/c nude mouse xenografted with human A549 cells assessed as effect on heart at 20 mg/kg, ip administered every two days for 18 days by H and E staining method; type: organism-based; settings: in vivo, 432 h, time 18 day
[28] = Toxicity in BALB/c nude mouse xenografted with human A549 cells assessed as effect on liver at 20 mg/kg, ip administered every two days for 18 days by H and E staining method; type: organism-based; settings: in vivo, 432 h, time 18 day

## Cn1ccc2c(Oc3ccc(NC(=O)c4cn(-c5ccc(Br)cc5F)c5ncccc5c4=O)cc3)ccnc21
A549 [1]
  IC50: 28.7 µM

## COc1ccc(-n2cc(C(=O)Nc3ccc(Oc4ccnc5c4ccn5C)cc3)c(=O)c3cccnc32)cc1
A549 [1]
  IC50: 30.6 µM
MCF7
  IC50: 44.9 µM

## O=C(Nc1ccc(Oc2ccnc3[nH]ccc23)c(F)c1)c1cn(-c2ccc(Br)cc2)c2ncccc2c1=O
A549 [1]
  IC50: 1.06 µM
HeLa
  IC50: 10.9 µM
MCF7
  IC50: 0.11 µM
A549 [2]
  Activity: Active
A549 [3]
  Activity: Active
A549 [4]
  Activity: Active
A549 [5]
  Activity: Active
A549 [6]
  Activity: Active
A549 [7]
  Activity: 5.58%
A549 [8]
  Activity: 3.33%
A549 [9]
  Activity: 8.13%
A549 [10]
  Activity: 2.2%
A549 [11]
  Activity: 12.69%
A549 [12]
  Activity: 4%
A549 [13]
  Activity: 58.72%
A549 [14]
  Activity: 10.19%
A549 [15]
  Activity: 31.09%
A549 [16]
  Activity: 60.15%
A549 [17]
  Activity: 13.01%
A549 [18]
  Activity: 26.84%
A549 [19]
  Activity: 69.22%
A549 [20]
  Activity: 15.48%
A549 [21]
  Activity: 15.31%
A549 [22]
  Activity: Active
A549 [23]
  inhibition in vivo at 20 mg/kg: 64.5%
A549 [24]
  Activity: Active
[25]
  Activity: Non-Toxic
[26]
  Activity: Non-Toxic
[27]
  Activity: Non-Toxic
[28]
  Activity: Non-Toxic

## O=C(Nc1ccc(Oc2ccnc3[nH]ccc23)cc1)c1cn(-c2ccc(F)c(Cl)c2)c2ncccc2c1=O
A549 [1]
  IC50: 12.4 µM
HeLa
  IC50: 14.2 µM
MCF7
  IC50: 2.01 µM

## O=C(Nc1ccc(Oc2ccnc3[nH]ccc23)c(F)c1)c1cn(-c2ccc(C(F)(F)F)cc2Cl)c2ncccc2c1=O
A549 [1]
  IC50: 9.15 µM
HeLa
  IC50: 27.8 µM
MCF7
  IC50: 13 µM

## Cn1ccc2c(Oc3ccc(NC(=O)c4cn(-c5ccccc5)c5ncccc5c4=O)cc3F)ccnc21
A549 [1]
  IC50: 16.9 µM
MCF7
  IC50: 14.8 µM

## O=C(Nc1ccc(Oc2ccnc3[nH]ccc23)c(F)c1)c1cn(-c2ccc(F)cc2)c2ncccc2c1=O
A549 [1]
  IC50: 6.42 µM
HeLa
  IC50: 14.9 µM
MCF7
  IC50: 7.16 µM

## Cn1ccc2c(Oc3ccc(NC(=O)c4cn(-c5ccc(F)c(Cl)c5)c5ncccc5c4=O)cc3)ccnc21
A549 [1]
  IC50: 15.1 µM
MCF7
  IC50: 48.6 µM

## O=C(Nc1ccc(Oc2ccnc3[nH]ccc23)cc1)c1cn(-c2ccc(F)cc2)c2ncccc2c1=O
A549 [1]
  IC50: 9.62 µM
HeLa
  IC50: 86 µM

## Cn1ccc2c(Oc3ccc(NC(=O)c4cn(-c5ccccc5)c5ncccc5c4=O)cc3)ccnc21
A549 [1]
  IC50: 22.3 µM
HeLa
  IC50: 77 µM
MCF7
  IC50: 13.1 µM

## O=C(Nc1ccc(Oc2ccnc3[nH]ccc23)cc1)c1cn(-c2ccccc2)c2ncccc2c1=O
A549 [1]
  IC50: 18.2 µM
HeLa
  IC50: 80 µM
MCF7
  IC50: 46.7 µM

## Cn1ccc2c(Oc3ccc(NC(=O)c4cn(-c5ccc(F)cc5)c5ncccc5c4=O)cc3)ccnc21
A549 [1]
  IC50: 16.8 µM
HeLa
  IC50: 76.6 µM

## O=C(Nc1ccc(Oc2ccnc3[nH]ccc23)c(F)c1)c1cn(-c2ccccc2)c2ncccc2c1=O
A549 [1]
  IC50: 6.51 µM
HeLa
  IC50: 29.3 µM
MCF7
  IC50: 13 µM

## COc1cc2nccc(Oc3ccc(NC(=O)C4(C(=O)Nc5ccc(F)cc5)CC4)cc3)c2cc1OC [CABOZANTINIB]
A549 [1]
  IC50: 0.33 µM
HeLa
  IC50: 79.1 µM
MCF7
  IC50: 30.9 µM
A549 [9]
  Activity: 6.89%
A549 [10]
  Activity: 2.32%
A549 [16]
  Activity: 69.22%
A549 [17]
  Activity: 15.48%
A549 [18]
  Activity: 15.31%
A549 [23]
  inhibition in vivo at 20 mg/kg: 47.9%
A549 [24]
  Activity: Active
[25]
  Activity: Non-Toxic
[26]
  Activity: Non-Toxic
[27]
  Activity: Non-Toxic
[28]
  Activity: Non-Toxic

## Cn1ccc2c(Oc3ccc(NC(=O)c4cn(-c5ccc(Cl)cc5)c5ncccc5c4=O)cc3)ccnc21
A549 [1]
  IC50: 15.3 µM
HeLa
  IC50: 63 µM

## O=C(Nc1ccc(Oc2ccnc3[nH]ccc23)c(F)c1)c1cn(-c2ccc(Cl)cc2)c2ncccc2c1=O
A549 [1]
  IC50: 5.29 µM

## Cn1ccc2c(Oc3ccc(NC(=O)c4cn(-c5ccc(Br)cc5)c5ncccc5c4=O)cc3)ccnc21
A549 [1]
  IC50: 10.8 µM
HeLa
  IC50: 50.2 µM
MCF7
  IC50: 29.1 µM

## Cn1ccc2c(Oc3ccc(NC(=O)c4cn(-c5ccc(C(F)(F)F)cc5Cl)c5ncccc5c4=O)cc3)ccnc21
HeLa
  IC50: 80.3 µM

## O=C(Nc1ccc(Oc2ccnc3[nH]ccc23)c(F)c1)c1cn(-c2ccc(Br)cc2F)c2ncccc2c1=O
A549 [1]
  IC50: 20.1 µM
MCF7
  IC50: 55.6 µM

## O=C(Nc1ccc(Oc2ccnc3[nH]ccc23)cc1)c1cn(-c2ccc(Br)cc2F)c2ncccc2c1=O
A549 [1]
  IC50: 22.7 µM

## Cn1ccc2c(Oc3ccc(NC(=O)c4cn(-c5ccc(Br)cc5F)c5ncccc5c4=O)cc3F)ccnc21
A549 [1]
  IC50: 29.9 µM
HeLa
  IC50: 61.2 µM

## COc1ccc(-n2cc(C(=O)Nc3ccc(Oc4ccnc5[nH]ccc45)c(F)c3)c(=O)c3cccnc32)cc1
A549 [1]
  IC50: 7.23 µM
HeLa
  IC50: 19.9 µM
MCF7
  IC50: 1.18 µM

## Cn1ccc2c(Oc3ccc(NC(=O)c4cn(-c5ccc(Br)cc5)c5ncccc5c4=O)cc3F)ccnc21
A549 [1]
  IC50: 10.2 µM
MCF7
  IC50: 5.49 µM

## O=C(Nc1ccc(Oc2ccnc3[nH]ccc23)cc1)c1cn(-c2ccc(Cl)cc2)c2ncccc2c1=O
HeLa
  IC50: 53.3 µM

## O=C(Nc1ccc(Oc2ccnc3[nH]ccc23)c(F)c1)c1cn(-c2ccc(F)c(Cl)c2)c2ncccc2c1=O
A549 [1]
  IC50: 9.71 µM
HeLa
  IC50: 53.1 µM
MCF7
  IC50: 12 µM

## COc1ccc(-n2cc(C(=O)Nc3ccc(Oc4ccnc5[nH]ccc45)cc3)c(=O)c3cccnc32)cc1
A549 [1]
  IC50: 26 µM
HeLa
  IC50: 95.4 µM
MCF7
  IC50: 47.2 µM

## O=C(Nc1ccc(Oc2ccnc3[nH]ccc23)cc1)c1cn(-c2ccc(C(F)(F)F)cc2Cl)c2ncccc2c1=O
HeLa
  IC50: 50.3 µM

## O=C(Nc1ccc(Oc2ccnc3[nH]ccc23)cc1)c1cn(-c2ccc(Br)cc2)c2ncccc2c1=O
A549 [1]
  IC50: 8.39 µM
HeLa
  IC50: 49.3 µM
MCF7
  IC50: 30.8 µM
